Converted amounts (≈) assume the structure as drawn.
Key:
[1] = Solubility of compound by CLND assay; assay type: physicochemical
[2] = biological target: Bromodomain-containing protein 4 (Homo sapiens, UniProt O60885, Y390A); test: Inhibition of 6His-Thr-BRD4 (1 to 477 residues) BD2 domain Y390A mutant (unknown origin) incubated for 30 mins by TR-FRET assay
[3] = biological target: Bromodomain-containing protein 4 (Homo sapiens, UniProt O60885, Y97A); test: Inhibition of 6His-Thr-BRD4 (1 to 477 residues) BD1 Y97A mutant (unknown origin) incubated for 30 mins by TR-FRET assay
Homo sapiens = species on record: Homo sapiens; test: Selectivity index, ratio of pIC50 of BRD4 BD1 (unknown origin) to pIC50 of BRD4 BD2 (unknown origin)
[4] = Permeability of compound; assay type: ADME; details: not told; read-out: permeability

Row | SMILES | solubility kinetic [1] [µg/mL] | IC50 [2] [µM] | IC50 [3] [µM] | Ratio pIC50 (Homo sapiens) | Papp [4] [×10⁻⁶ cm/s]
1 | CCNC(=O)c1ccc(OCc2ccncc2)c(-c2cn(C)nn2)c1 | ≥ 115 | 1 | 12.6 | 15 | 30
2 | CCNC(=O)c1ccc(O[C@H](C)c2ccccc2)c(-c2cn(C)nn2)c1 | 119 (≈ 340 µM) | 1.58 | 39.8 | 25 | 42
3 | CCNC(=O)c1ccc(OCc2cccnc2)c(-c2cn(C)nn2)c1 | 103 (≈ 305 µM) | 1 | > 50.1 | > 50 | 18
4 | CCNC(=O)c1ccc(OCc2ccccn2)c(-c2cn(C)nn2)c1 | 114 (≈ 338 µM) | 0.316 | 39.8 | 125 | 14
5 | CCNC(=O)c1ccc(OCc2ccc(OC)cc2)c(-c2cn(C)nn2)c1 | ≥ 142 | 0.316 | 20 | 65 | 39
6 | C[C@H](Oc1ccc(C(=O)NCC2CCOCC2)cc1-c1cn(C)nn1)c1ccccn1 | ≥ 192 | 0.501 | 31.6 | 65 | 5.5

Stronger by IC50 [2], values ahead:

Row | solubility kinetic [1] [µg/mL] | IC50 [2] [µM] | IC50 [3] [µM] | Ratio pIC50 (Homo sapiens) | Papp [4] [×10⁻⁶ cm/s] | SMILES
7 | ≥ 189 | 0.0631 | 15.8 | 250 | 4.8 | Cn1cc(-c2cc(C(=O)NCC[C@H]3CNCCO3)cc(Cc3ccccc3)n2)nn1
8 | 66 (≈ 194 µM) | 0.2 | 20 | 100 | 30 | CCNC(=O)c1cc(Cc2ccccc2F)nc(-c2cn(C)nn2)c1
9 | ≥ 141 | 0.126 | 20 | 160 | 27 | Cn1cc(-c2cc(C(=O)NC3CCOCC3)cc(Cc3ccccc3)n2)nn1
10 | 105 (≈ 300 µM) | 0.0398 | 3.98 | 100 | 42 | CCNC(=O)c1ccc(O[C@@H](C)c2ccccc2)c(-c2cn(C)nn2)c1
11 | ≥ 194 | 0.126 | 15.8 | 100 | 5.9 | C[C@H](Oc1ccc(C(=O)NC2CCOCC2)cc1-c1cn(C)nn1)c1ccccn1
12 | ≥ 169 | 0.0251 | 1.58 | 65 | 4.2 | C[C@H](Oc1ccc(C(=O)N[C@H]2[C@@H]3COC[C@@H]32)cc1-c1cn(C)nn1)c1ccccn1
13 | ≥ 127 | 0.0794 | 7.94 | 100 | 15 | CCNC(=O)c1ccc(O[C@@H](C)c2ccccn2)c(-c2cn(C)nn2)c1
14 | ≥ 139 | 0.251 | 20 | 80 | 42 | CCNC(=O)c1ccc(OCc2cccc(OC)c2)c(-c2cn(C)nn2)c1

Source: ChEMBL document CHEMBL4834404, “Template-Hopping Approach Leads to Potent, Selective, and Highly Soluble Bromo and Extraterminal Domain (BET) Second Bromodomain (BD2) Inhibitors” (J Med Chem, 2021)
